Experiment [1] has as its target T1, MAO-B (Rattus norvegicus, UniProt P19643).
T1 sequence (P19643 1-520): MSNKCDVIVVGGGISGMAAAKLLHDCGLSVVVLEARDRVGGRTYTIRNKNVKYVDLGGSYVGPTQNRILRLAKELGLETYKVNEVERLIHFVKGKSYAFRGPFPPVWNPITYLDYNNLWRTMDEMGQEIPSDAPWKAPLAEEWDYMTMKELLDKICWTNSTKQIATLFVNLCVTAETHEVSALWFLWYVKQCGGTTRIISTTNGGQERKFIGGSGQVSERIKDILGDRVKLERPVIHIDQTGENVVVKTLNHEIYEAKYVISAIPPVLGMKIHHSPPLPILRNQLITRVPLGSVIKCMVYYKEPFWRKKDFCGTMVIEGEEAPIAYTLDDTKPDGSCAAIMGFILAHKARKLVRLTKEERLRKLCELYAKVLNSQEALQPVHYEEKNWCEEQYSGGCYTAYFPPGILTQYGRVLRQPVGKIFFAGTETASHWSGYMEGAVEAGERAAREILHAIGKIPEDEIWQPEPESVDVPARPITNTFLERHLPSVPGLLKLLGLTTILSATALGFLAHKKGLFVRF
The experiment can be described thus: in vivo. As to conditions: for ED50 / inhibition at 0.5 mg/kg: rat. The method, then:
Groups of three rats were used for each dose level of inhibitor, and MAO activity determined in brain and liver using the general technique described above. The amount of protein in each incubation was determined using the Folin-Lowry method, and enzyme activity calculated as nmol of substrate metabolized per hour of incubation for each mg of protein. Activity of MAO in tissues from animals treated with inhibitors was expressed as a percentage of the enzyme activity in a group of control animals administered vehicle (water for oral administration, 0.9% saline for ip injection) and killed as above.

Experiment [2] addresses T1, MAO-B. The experiment is described as follows: in vivo. As to conditions: po, read-out: inhibition of brain MAO-B. The method, then: (+)PAI or the racemic mixture at three dose levels (0.05, 0.1 and 0.5mg/kg) by oral administration, one dose daily for 21 days, and decapitated 2 hours after the last dose.
The subject of experiment [3] is MPTP-induced striatal dopamine depletions. The experiment can be described thus: Suppression of MPTP-induced dopaminergic toxicity (striatal DA and DOPAC). The conditions noted are these: striatum. Format: in vivo, mice. The method, then: Brains were removed and corpora striata dissected on an ice-cold glass plate and frozen on dry ice. Striatal tissues were homogenized in 0.1 M perchloric acid, and deproteinized aliquots containing dihydroxybenzylamine as an internal standard were assayed for dopamine and its major metabolite 3,4-dihydroxy-phenylacetic acid (DOPAC) using HPLC with electrochemical detection.

The subject of experiment [4] is guinea-pig ileum. The conditions noted are these: bethanechol 0.8 µM; PAI HCl 20 µM.
The test system of experiment [5] is guinea-pig ileum. The experiment is described as follows: tissue or blood. As to conditions: Cavia porcellus, read-out: Percent relaxation.
The target in the next experiment is T2, MAO-A (Rattus norvegicus, UniProt P21396).
T2 sequence (P21396 1-526): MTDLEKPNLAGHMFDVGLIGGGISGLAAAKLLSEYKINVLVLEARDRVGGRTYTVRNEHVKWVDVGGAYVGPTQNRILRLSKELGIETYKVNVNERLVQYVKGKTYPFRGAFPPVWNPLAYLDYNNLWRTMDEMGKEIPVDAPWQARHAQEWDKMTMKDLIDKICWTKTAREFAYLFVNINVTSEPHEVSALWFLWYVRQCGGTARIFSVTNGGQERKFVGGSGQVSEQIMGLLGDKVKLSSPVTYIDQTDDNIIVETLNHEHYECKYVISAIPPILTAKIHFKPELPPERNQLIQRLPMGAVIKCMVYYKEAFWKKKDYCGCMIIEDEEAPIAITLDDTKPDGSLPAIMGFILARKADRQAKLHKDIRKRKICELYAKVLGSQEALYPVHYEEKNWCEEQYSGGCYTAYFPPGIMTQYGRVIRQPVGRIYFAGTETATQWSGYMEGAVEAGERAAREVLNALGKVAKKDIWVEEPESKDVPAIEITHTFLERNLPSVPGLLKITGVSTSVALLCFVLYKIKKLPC
The experiment can be described thus: Inhibition of MAO activity in vivo, acute treatment, MAO-A. More on the design: MAO activity determined in brain and liver using the general technique described above; from tissue; host or cells: brain and liver of treated rats.

Where [6] appears, read: dose producing 50% inhibition, rat, i.p., 1h.
Setting [7] is: dose producing 50% inhibition, rat, p.o., 2h.

Results on 1 compound are retold here after patent publication EP0812190B1 (priority 1993, dated 1995).

Like-named read-outs stand apart in the source and are kept apart here. Where only a bound is given, the exact number is not on record here.

On to `C#CCN[C@@H]1CCc2ccccc21` [[R](+)PAI, R(+)-N-propargyl-1-aminoindan], for which the “inhibition of MAO-B in brain and liver” value against MAO-B [1] (dose of 1mg/kg) is given as “complete inhibition”. Moreover, the ED50 on MAO-B [1] (ip, 1 h, read-out: IC-50 MAO-B I.P. BRAIN) was 0.07 mg/kg; at MAO-B [1] (ip, 1 h, read-out: IC-50 MAO-B I.P. LIVER) it was 0.06 mg/kg; at MAO-B [1] (po, 2 h, read-out: IC-50 MAO-B P.O. BRAIN), 0.17 mg/kg; on MAO-B [1] (po, 2 h, read-out: IC-50 MAO-B P.O. LIVER), 0.05 mg/kg. In addition, the inhibition at 0.5 mg/kg at MAO-B [1] (ip, read-out: inhibition of brain MAO-B activity) was found to be 90%; on MAO-B [1] (po, read-out: inhibition of MAO-B), 80%. Besides, the inhibition at 0.1 mg/kg at MAO-B [2] is > 80%. The DOPAC amounted to 3.3±0.3 ng/mg protein in experiment [3] (drug alone (PAI isomers […] i.p., deprenyl 5 mg/kg i.p.)) and 6.0±0.3 ng/mg protein in experiment [3] (pretreatment one hour before MPTP-HCl 30 mg/kg s.c., 5 days later). Besides, the DA in experiment [3] (drug alone (PAI isomers […] i.p., deprenyl 5 mg/kg i.p.), Mean±S.E.M.) is reported as 185.0±6.9 ng/mg protein; in experiment [3] (pretreatment one hour before MPTP-HCl 30 mg/kg s.c. (PAI isomers […] i.p., deprenyl 5 mg/kg i.p.), 5 days later) it was 177.8±14.4 ng/mg protein. In the experiment on guinea-pig ileum [4], this compound showed a Percent relaxation of 25%. For the same compound, the inhibition at 60 µM in the experiment on guinea-pig ileum [5] lay within 25 to 50%. In addition, on MAO-A (brain, 0.5mg/kg i.p., single dose), the “inhibition of MAO-A activity” value was 20%. For the same compound, the “inhibition of MAO-A” value against MAO-A (brain, 0.5mg/kg oral, single dose) is listed as “no detectable inhibition”. Further, on MAO-A (setting [6]), the “IC-50 MAO-A I.P. BRAIN” value turned out to be 1.2 mg/kg. The “IC-50 MAO-A I.P. LIVER” value against MAO-A (setting [6]) came out at 5 mg/kg. On MAO-A (setting [7]), the “IC-50 MAO-A P.O. BRAIN” value is recorded as >5 mg/kg. Also, the “IC-50 MAO-A P.O. LIVER” value against MAO-A (setting [7]) is recorded as >5 mg/kg.
